# According to patent publication US8278105B2, “Induction, propagation and isolation of liver progenitor cells” (University of Southern California, priority 2008, dated 2012):
# Test system: HES2 or HES3 cells
# Assay: 3i-induction of hepatocyte-like cells from human ES cells; dosages of medium components examined
# Assay type: cell-based
# Description: HES2 or 3 cells were cultured for 5 days on MEF-feeders with 20% FCS hES medium in organ culture dishes. […] Cells were detached as clumps by collagenase and feeder cells were removed by sedimentation in DMEM/F-12 medium.
# They were subsequently propagated using 3i or Kubota's medium following enzymatic dissection.
# HES2 or 3 cells were cultured 5 days on MEF-feeders with 20% FCS hES medium in organ culture dishes.
# Cells were detached as clumps by collagenase and feeder cells were removed by sedimentation in DMEM/F-12 medium.
compound,measurement,setting,value
O=C(NOCC1CC1)c1ccc(F)c(F)c1Nc1ccc(I)cc1Cl [PD184352],effect on hepatic differentiation,"PD184352 0.4 μM, in combination of SU5402, PD184352 and CHIR99021",decreased hepatic differentiation and increased trophectodermal cells
same,effect on hepatic differentiation,"PD184352 0.8 μM, in combination of SU5402, PD184352 and CHIR99021",most efficient
same,effect on hepatic differentiation,"PD184352 1.6 μM, in combination of SU5402, PD184352 and CHIR99021",no difference from 0.8 μM
O=C(NOC[C@H](O)CO)c1ccc(F)c(F)c1Nc1ccc(I)cc1F [PD0325901],efficiency of hepatic differentiation compared with 3i,"PD0325901 0.4 μM, in combination of PD0325901 and CHIR99021",no difference from 3i
same,efficiency of hepatic differentiation compared with 3i,"PD0325901 0.8 μM, in combination of PD0325901 and CHIR99021",more efficient than 3i
same,efficiency of hepatic differentiation,"PD0325901 1.6 μM, in combination of PD0325901 and CHIR99021",no difference from 0.8 μM
"Cc1c[nH]c(/C=C2\C(=O)Nc3ccccc32)c1CCC(=O)O [SU5402, 3-[3-(2-Carboxyethyl)-4-methylpyrrol-2-methylidenyl]-2-indolinone]",effect on hepatic differentiation,"SU5402 1 μM, in combination of SU5402, PD184352 and CHIR99021",decreased hepatic differentiation and increased trophectodermal/neural cells
same,effect on hepatic differentiation,"SU5402 2 μM, in combination of SU5402, PD184352 and CHIR99021",most efficient
same,toxicity to the culture,"SU5402 4 μM, in combination of SU5402, PD184352 and CHIR99021",toxic
c1cc(-c2cnn3cc(-c4ccc(OCCN5CCCCC5)cc4)cnc23)ccn1 [Dorsomorphin],toxicity to the culture,"Dorsomorphin 5 μM, in combination of PD0325901, CHIR99021 and Dorsomorphin",toxic
